ChEMBL document CHEMBL1777735, “Lipophilicity of acidic compounds: impact of ion pair partitioning on drug design” (Bioorg Med Chem Lett, 2011)

Columns and labels:
[1] = Plasma protein binding in human; format: ADME, cell-free; conditions: read-out: PPB (converted)
[2] = Lipophilicity, log P of the compound; format: physicochemical; conditions: octanol/water
[3] = 1-Octanol-water distribution coefficient, log D of the compound at pH 7.4 by shake-flask method; format: physicochemical
[4] = 1-Octanol-sodium citrate buffer distribution coefficient, log D of the compound at pH 5.5 by shake-flask method; format: physicochemical
[5] = 1-octanol/sodium citrate buffer, read-out: logD

fraction unbound [1] | logP [2] | logD [3] | logD ([4]; octanol/water) | logD [4, 5] | logP ([2]; read-out: logP) | Structure (SMILES)
0.105 |  |  |  |  |  | CCOC(=O)[C@H](CCc1ccccc1)N[C@@H](C)C(=O)N1[C@H](C(=O)O)C[C@@H]2CCC[C@@H]21
0.004 | 2.6 | 2.8 | 3.7 |  |  | CN(C)S(=O)(=O)NC(=O)CCCc1c(-c2ccc(F)cc2)[nH]c2ccc(C#N)cc12
0.5 |  | -1.8 |  | -0.5 |  | CCOC(=O)[C@H](CCc1ccccc1)N[C@@H](C)C(=O)N1CCC[C@H]1C(=O)O
0.25 |  | -0.3 |  | 1.3 | 2.4 | CC(=O)c1ccc(S(=O)(=O)NC(=O)NC2CCCCC2)cc1 [ACETOHEXAMIDE]
0.041 |  |  |  |  |  | CCOC(=O)[C@H](CCc1ccccc1)N[C@H]1CCc2ccccc2N(CC(=O)O)C1=O [BENAZEPRIL]
0.016 |  | -0.6 |  | 1.1 |  | CCCCNc1cc(C(=O)O)cc(S(N)(=O)=O)c1Oc1ccccc1 [BUMETANIDE]
0.009 |  |  |  |  |  | CCc1cccc2c3c([nH]c12)C(CC)(CC(=O)O)OCC3 (stereo unspecified) [ETODOLAC]
0.002 |  | 2.2 |  | 3.5 |  | COc1ccc(Cl)cc1C(=O)NCCc1ccc(S(=O)(=O)NC(=O)NC2CCCCC2)cc1 [GLYBURIDE]
 |  | 2.2 |  | 3.5 |  | Cc1cc(SCc2sc(-c3ccc(C(F)(F)F)cc3)nc2C)ccc1OCC(=O)O [GW501516]
0.02 |  | 0.9 |  | 2.4 |  | CCCCC1=NC2(CCCC2)C(=O)N1Cc1ccc(-c2ccccc2-c2nnn[nH]2)cc1 [IRBESARTAN]
0.02 |  | 0.6 |  | 2.2 |  | CCCCc1nc(Cl)c(CO)n1Cc1ccc(-c2ccccc2-c2nn[nH]n2)cc1 [LOSARTAN]
< 0.001 |  | 1 |  | 2.5 | 3.1 | O=C(O)CCc1nc(-c2ccccc2)c(-c2ccccc2)o1 [OXAPROZIN]
0.007 |  | -0.3 |  | 1.1 |  | CN1C(C(=O)Nc2ccccn2)=C(O)c2ccccc2S1(=O)=O [PIROXICAM]
0.025 |  | 0.5 |  | 2.3 | 3 | O=C(O)CCn1c2c(c3ccccc31)C[C@H](NS(=O)(=O)c1ccc(F)cc1)CC2 [RAMATROBAN]
0.009 |  | 2.2 |  | 3.2 |  | CCOc1cc(CC(=O)N[C@@H](CC(C)C)c2ccccc2N2CCCCC2)ccc1C(=O)O [REPAGLINIDE]
0.065 |  | -1.6 |  | 0 |  | Cc1nnc(NS(=O)(=O)c2ccc(N)cc2)s1 [SULFAMETHIZOLE]
0.06 |  | 0 |  | 1.2 |  | Cc1ccc(S(=O)(=O)NC(=O)NN2CCCCCC2)cc1 [TOLAZAMIDE]
0.003 |  | -1 |  | 0.8 | 2.7 | Cc1ccc(C(=O)c2ccc(CC(=O)O)n2C)cc1 [TOLMETIN]

Structure (SMILES) | fraction unbound [1] | logP [2] | logD [3] | logD ([4]; octanol/water) | logD [4, 5] | logP ([2]; read-out: logP)
O=C(O)CCCc1ccc(N(CCCl)CCCl)cc1 [CHLORAMBUCIL] | 0.01 |  | 1.4 |  | 3.2 | 
COc1ccc2c(c1)c(CC(=O)O)c(C)n2C(=O)c1ccc(Cl)cc1 [INDOMETHACIN] |  |  |  |  | 2.7 | 3.8
O=C(c1ccccc1)c1ccc2n1CCC2C(=O)O (stereo unspecified) [KETOROLAC] | 0.008 |  | -1 |  | 0.6 | 2.7
